PubChem BioAssay AID2060624 (Molecular Pharmacology Branch, DTP, NCI, 2025)

System: 217524-143-R1-J4-PDC spheroids with HUVEC/MSC, viability
Experiment: Anticancer human tumor 217524-143-R1-J4-PDC patient-derived pancreatic carcinoma cell line growth inhibition [CLK]
Conditions: for IC50: curve of first compound; for viability, T/C: stronger effect = lower value
Excerpt: A high-throughput screen of multi-cell type tumor spheroids was designed to identify active combinations of […] and targeted small molecules. Complex spheroids include a stromal component modeled by human endothelial cells (HUVEC) and fibroblasts modeled by human mesenchymal stem cells (MSCs). The concentration ranges selected for each drug and investigational agent were based upon clinically achievable concentrations if the clinical Cmax of the agent was known.
Compounds. The drugs and investigational agents: cirtuvivint (SM08502; NSC835563), CC-671 (NSC850746), vemurafenib (NSC761431), tapotoclax (NSC804041), sotorasib (NSC818433), adagrasib (NSC831453), MRTX-1133 (NSC836407), BAY2416964 (NSC825713), copanlisib (NSC816437), inavolisib (NSC800729), abemaciclib (NSC768073), osimertinib (NSC779217), entinostat (NSC756642), eltanexor (KPT-8602, NSC794443), venetoclax (NSC766270), ceralasertib (NSC777638), bortezomib (NSC756655), olaparib (NSC753686), talazoparib (NSC767125), alisertib (NSC759677), peposertib (NSC802822), gemcitabine (NSC613327), 5-fluorouracil (NSC19893), SN-38 (NSC673596), oxaliplatin (NSC266046), paclitaxel (NSC125973), and doxorubicin (NSC123127), were obtained from the National Cancer Institute (NCI) Developmental Therapeutics Program Chemical Repository. The FDA-approved anticancer drug set is available from the Developmental Therapeutics Program at https://dtp.cancer.gov/organization/dscb/obtaining/available plates.htm. […] The stock solutions were prepared in dimethyl sulfoxide (DMSO, Sigma-Aldrich, St. Louis, MO, cat. D2650), except for the platinum complexes which were prepared in saline (Quality Biological, Gaithersburg, MD, cat. 114-055-101), at 800-fold the tested concentration and stored at -70 degrees C prior to their use. All drugs and investigational agents were tested over a range starting from a high concentration at or near the clinical Cmax and decreasing in half-log increments. If the clinical Cmax for an agent had not been determined, the highest concentration tested was 10 microM.
Cell Culture. All cells were maintained in an incubator at 37 degrees C and 5% CO2 with 95% humidity. The PDC lines were cultured according to standard operating procedures established by the NCI PDMR. Briefly, all PDCs were thawed and cultured in Matrigel-coated flasks prepared with a working solution of 1X Ham's F-12 nutrient mix, without supplementation (Invitrogen, Waltham, MA, cat. 11765054), 100 U/mL penicillin-streptomycin (Invitrogen, cat. 15140122), and 2.5% Matrigel (Corning Inc., Corning, NY, cat. 354248) for the first three passages. The 947758-054-R-J2-PDC line was cultured in 6B/Colon 1A media, which includes advanced DMEM/F-12 (Thermo Fisher Scientific, cat. 12634028), 10 mM HEPES (Thermo Fisher Scientific, cat. 15630080), 1X GlutaMAX supplement (Thermo Fisher Scientific, cat. 35050061), 0.1 mg/mL primocin (InvivoGen, cat. ant-pm-2), 10% defined fetal bovine serum, heat inactivated (HyClone Laboratories Inc., cat. SH30070.03HI), 1.25 mM N-Acetyl-L-cysteine (Sigma-Aldrich, cat. A9165), 10 mM nicotinamide (Sigma-Aldrich, cat. N0636), 1X B-27 supplement (Thermo Fisher Scientific, cat. 17504044), 1X N-2 supplement (Thermo Fisher Scientific, cat. 17502048), and 10 microM Y-27632 dihydrochloride (Tocris Bioscience, cat. 1254). The 876862-298-R-J1-PDC was cultured in 6E media, which includes all 6B/Colon 1A media components plus 50% L-WRN conditioned media (ATCC, cat. CRL-3276), 50 ng/mL recombinant human EGF recombinant protein (hEGF; Thermo Fisher Scientific, cat. PHG0311), 10 ng/mL recombinant human fibroblast growth factor 10 (hGFG-10; PeproTech, cat. 100-26), 1 ng/mL recombinant human fibroblast growth factor 2 (hFGF-2; PeproTech, cat. 100-18B), and 1 µM prostaglandin E2 (PGE2; Tocris, cat. 2296). The 227483-062-R1-J1-PDC line was cultured in Panc media, containing all 6E components except hFGF-2, with the addition of 500 nM SB-431542 (Selleckchem, cat. S1067) and 10 nM gastrin (Tocris, cat. 3006). […]
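Also: spheroids exposed to agents for seven days before reading.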
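For viability, T/C in this document: 100% = DMSO vehicle control viability.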

Question: With `C=CC(=O)N1CCN(c2nc(=O)n(-c3c(C)ccnc3C(C)C)c3nc(-c4c(O)cccc4F)c(F)cc23)C(C)C1` (configuration not stated) + CN1CCN(c2cc(C(=O)Nc3cc4cc(-c5cnn(C)c5)ccc4cn3)ccn2)CC1 as the compound, how does the IC50 (second compound 0.0316 µM) read?
Answer: > 10 µM

Question: What about the IC50 (second compound 0.1 µM) of the same compound?
Answer: > 10 µM

Question: What about the IC50 (second compound 0.316 µM) of the same compound?
Answer: < 0.0316 µM

Question: And the IC50 (second compound 1 µM)?
Answer: < 0.0316 µM

Question: What about the IC50 (second compound 3.16 µM) of the same compound?
Answer: < 0.0316 µM

Question: What about the IC50 (second compound 10 µM) of the same compound?
Answer: < 0.0316 µM

Question: And the viability, T/C (second compound 0.0316 µM, first compound 0.0316 µM)?
Answer: 93.4%

Question: And the viability, T/C (second compound 0.0316 µM, first compound 0.1 µM)?
Answer: 71.5%

Question: And the viability, T/C (second compound 0.0316 µM, first compound 0.316 µM)?
Answer: 67.1%

Question: What about the viability, T/C (second compound 0.0316 µM, first compound 1 µM) of the same compound?
Answer: 90.5%

Question: What about the viability, T/C (second compound 0.0316 µM, first compound 3.16 µM) of the same compound?
Answer: 111%

Question: What about the viability, T/C (second compound 0.0316 µM, first compound 10 µM) of the same compound?
Answer: 95.4%

Question: And the viability, T/C (second compound 0.1 µM, first compound 0.0316 µM)?
Answer: 62.3%

Question: And the viability, T/C (second compound 0.1 µM, first compound 0.1 µM)?
Answer: 59%

Question: And the viability, T/C (second compound 0.1 µM, first compound 0.316 µM)?
Answer: 58.7%

Question: What about the viability, T/C (second compound 0.1 µM, first compound 1 µM) of the same compound?
Answer: 64.9%

Question: And the viability, T/C (second compound 0.1 µM, first compound 3.16 µM)?
Answer: 66.7%

Question: What about the viability, T/C (second compound 0.1 µM, first compound 10 µM) of the same compound?
Answer: 57%

Question: And the viability, T/C (second compound 0.316 µM, first compound 0.0316 µM)?
Answer: 25.8%

Question: What about the viability, T/C (second compound 0.316 µM, first compound 0.1 µM) of the same compound?
Answer: 22.5%

Question: And the viability, T/C (second compound 0.316 µM, first compound 0.316 µM)?
Answer: 27%

Question: What about the viability, T/C (second compound 0.316 µM, first compound 1 µM) of the same compound?
Answer: 30.8%

Question: What about the viability, T/C (second compound 0.316 µM, first compound 3.16 µM) of the same compound?
Answer: 31.1%

Question: What about the viability, T/C (second compound 0.316 µM, first compound 10 µM) of the same compound?
Answer: 22.9%

Question: And the viability, T/C (second compound 1 µM, first compound 0.0316 µM)?
Answer: 1.96%

Question: What about the viability, T/C (second compound 1 µM, first compound 0.1 µM) of the same compound?
Answer: 2.92%

Question: And the viability, T/C (second compound 1 µM, first compound 0.316 µM)?
Answer: 1.65%

Question: And the viability, T/C (second compound 1 µM, first compound 1 µM)?
Answer: 3.19%

Question: And the viability, T/C (second compound 1 µM, first compound 3.16 µM)?
Answer: 2.93%

Question: What about the viability, T/C (second compound 1 µM, first compound 10 µM) of the same compound?
Answer: 2.27%

Question: And the viability, T/C (second compound 3.16 µM, first compound 0.0316 µM)?
Answer: 1.06%

Question: And the viability, T/C (second compound 3.16 µM, first compound 0.1 µM)?
Answer: 1.37%

Question: And the viability, T/C (second compound 3.16 µM, first compound 0.316 µM)?
Answer: 1.15%

Question: And the viability, T/C (second compound 3.16 µM, first compound 1 µM)?
Answer: 0.96%

Question: And the viability, T/C (second compound 3.16 µM, first compound 3.16 µM)?
Answer: 1.76%

Question: And the viability, T/C (second compound 3.16 µM, first compound 10 µM)?
Answer: 1.78%

Question: And the viability, T/C (second compound 10 µM, first compound 0.0316 µM)?
Answer: 0.21%

Question: What about the viability, T/C (second compound 10 µM, first compound 0.1 µM) of the same compound?
Answer: 0.25%

Question: What about the viability, T/C (second compound 10 µM, first compound 0.316 µM) of the same compound?
Answer: 0.24%

Question: And the viability, T/C (second compound 10 µM, first compound 1 µM)?
Answer: 0.29%

Question: And the viability, T/C (second compound 10 µM, first compound 3.16 µM)?
Answer: 0.41%

Question: What about the viability, T/C (second compound 10 µM, first compound 10 µM) of the same compound?
Answer: 0.29%
